Data: paper PMC7403421, “Uncovering a possible role of reactive oxygen species in magnetogenetics” (Scientific Reports, 2020)

Molecular target: T1, TRPV1 (Rattus norvegicus, UniProt O35433)
T1 construct: rat TRPV1 with an N-terminally fused camelidae anti-GFP nanobody (αGFPnb-TRPV1), co-expressed with eGFP-tagged ferritin dimer in HEK-293T cells
Test: agonist dose response in Ca2+-dependent SEAP reporter and fluorescent calcium imaging in HEK-293T cells expressing TRPV1
Type: cell-based

T1 sequence (O35433 whole entry, the tested form may be a part): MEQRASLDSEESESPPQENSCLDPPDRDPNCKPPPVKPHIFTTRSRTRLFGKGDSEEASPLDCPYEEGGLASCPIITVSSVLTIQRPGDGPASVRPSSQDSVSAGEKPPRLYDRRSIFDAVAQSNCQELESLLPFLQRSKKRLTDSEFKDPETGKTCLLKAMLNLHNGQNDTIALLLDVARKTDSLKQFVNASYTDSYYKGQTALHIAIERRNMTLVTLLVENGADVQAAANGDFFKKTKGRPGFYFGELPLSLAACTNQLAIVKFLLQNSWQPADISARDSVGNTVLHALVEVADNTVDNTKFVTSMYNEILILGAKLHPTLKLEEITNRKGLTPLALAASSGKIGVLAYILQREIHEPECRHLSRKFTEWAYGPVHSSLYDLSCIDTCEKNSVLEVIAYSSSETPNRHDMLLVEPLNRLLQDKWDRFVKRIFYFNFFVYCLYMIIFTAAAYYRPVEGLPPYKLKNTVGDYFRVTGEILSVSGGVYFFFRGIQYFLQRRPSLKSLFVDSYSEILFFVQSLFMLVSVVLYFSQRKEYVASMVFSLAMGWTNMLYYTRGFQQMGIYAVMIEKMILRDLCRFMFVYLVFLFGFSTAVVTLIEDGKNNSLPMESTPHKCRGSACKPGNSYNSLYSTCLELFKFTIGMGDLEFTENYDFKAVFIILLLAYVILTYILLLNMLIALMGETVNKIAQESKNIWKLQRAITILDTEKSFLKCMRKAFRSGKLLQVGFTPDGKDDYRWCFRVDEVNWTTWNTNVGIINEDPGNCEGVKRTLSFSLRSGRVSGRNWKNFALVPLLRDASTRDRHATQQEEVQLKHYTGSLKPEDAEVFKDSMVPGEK

COc1cc(CNC(=O)CCCC/C=C/C(C)C)ccc1O [capsaicin]
agonist dose response in Ca2+-dependent SEAP reporter and fluorescent calcium im: Dose dependent TRPV1-mediated SEAP production was observed with respect to both capsaicin and inhibitor concentration
